From PubChem BioAssay AID1552 (Sanford-Burnham Center for Chemical Genomics, 2009) come the findings set out here.

Molecules are shown by their SMILES. Calls of active or inactive are those of the source. How the calls were made is not given here.

In this test the target is Ubiquitin-conjugating enzyme E2 N (Homo sapiens) (UniProt P61088). Put plainly: NMR detection of UBE2N ligand binding – biophysical, purified protein (AID 1552). The note with it: NMR binding to purified UBE2N.
Ubiquitin-conjugating enzyme E2 N (Homo sapiens), sequence (P61088 whole entry, looked up): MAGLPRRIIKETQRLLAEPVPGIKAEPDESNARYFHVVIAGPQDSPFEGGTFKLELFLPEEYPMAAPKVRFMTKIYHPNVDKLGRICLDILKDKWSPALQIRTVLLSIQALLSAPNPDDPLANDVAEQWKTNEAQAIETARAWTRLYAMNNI
In general, Kd refers to the equilibrium constant for the complex coming apart. `Cc1ccc(-c2c(C)n([O-])c(C)c(C)[n+]2=O)cc1`: the Kd was > 4 mM (inactive).
Next, `O=C(c1ccccc1)N1CCOCC1`: > 4 mM (inactive); `CC(C)n1c(Nn2cnnc2)nc2ccccc21`: > 4 mM (inactive); `c1ccc(CCc2nc(-c3cccnc3)no2)cc1`: > 4 mM (inactive).
As to `O=C(O)c1snnc1-c1ccccc1`, the Kd is > 4 mM (inactive).
With `Cc1cc(O)c2c(c1)C(=O)c1cccc(O)c1C2=O`, the Kd is > 4 mM (inactive).
For the compound `Nc1ccc2nccnc2c1`, the Kd is > 4 mM (inactive).
Regarding `S=C(Cc1cccnc1)N1CCOCC1`, the Kd is > 4 mM (inactive).
`O=C1c2ccccc2C(=O)c2c1ccc(O)c2O`: the Kd is > 4 mM (inactive).
In the case of `COC(=O)c1cn(C(=O)OC)c2ccccc12`, the Kd was > 4 mM (inactive).
`Cc1ccc(C(=O)Nc2nnc(-c3ccncc3)s2)o1`: the Kd was > 4 mM (inactive).
Under `Cc1noc(C)c1C(=O)Nc1ccc2c(c1)CCC2` stands > 4 mM (inactive); under `Cc1nc(-c2ccccc2)ncc1C(=O)O`, > 4 mM (inactive).
As to `COc1ccc(C(C)=O)c(OC)c1`, the Kd was > 4 mM (inactive).
Consider `CNc1nnc(Cc2csc(N)n2)s1`, for which the Kd was > 4 mM (inactive).
As for `Cc1cc(=O)cc(C)n1-c1ccccc1N`, the Kd was > 4 mM (inactive).
`Cc1nc2ccccc2c(=O)n1CCCn1ccnc1`: the Kd is > 4 mM (inactive).
With `Cc1cc(C)nc(Nc2n[nH]c(Cc3ccccc3)n2)n1`, the Kd is > 4 mM (inactive).
Under `O=c1[nH]cc(S(=O)(=O)Nc2ccccc2)c(=O)[nH]1` stands > 4 mM (inactive); under `CC12CN3CC(C)(CN(C1)C3c1cccs1)C2O` (stereo unspecified), > 4 mM (inactive).
Next, `C=CCCCCCCCCCCCC(O)CC(O)CO` (stereo unspecified) (tested in a mixture with another compound): > 4 mM (inactive).
As to `CCc1noc(C)c1C(=O)Nc1ncc(C)s1`, the Kd is > 4 mM (inactive).
Under `Cc1ccccc1-n1c(-c2ccncc2)n[nH]c1=S` stands > 4 mM (inactive); under `CC(=O)c1c(C)nc(C)nc1NC(=O)C(C)C`, > 4 mM (inactive); under `O=C1CSC(=Nc2ccc(Cl)cc2)N1`, > 4 mM (inactive).
Next, `CSc1ccccc1C(=O)N1CCOCC1`: > 4 mM (inactive).
Under `O=C1CCCCCN1CO` stands > 4 mM (inactive); under `O=C(Nc1ccncc1)c1c(F)cccc1F`, > 4 mM (inactive).
`O=C(Nn1cnnc1)c1csc2c1CCCC2`: the Kd was > 4 mM (inactive).
In the case of `COc1ccccc1NC(=O)/C=N/O`, the Kd was > 4 mM (inactive).
Under `Nc1ccc2c(c1)COc1ccccc1O2` stands > 4 mM (inactive).
In the case of `COC(=O)[C@@H]1OC(=O)[C@H]2O[C@@]23[C@@]1(C)CCC1[C@@]2(C)CCC(=O)C(C)(C)C2C[C@@H](OC(C)=O)[C@]13C` (stereo partly specified), the Kd is > 4 mM (inactive).
Regarding `O=C(O)c1csc2ccccc12`, the Kd is > 4 mM (inactive).
Under `CN1CCN(C(=O)C2CCCNC2)CC1` (stereo unspecified) stands > 4 mM (inactive); under `O=C(NC(=S)NC1CCSC1=O)c1ccco1` (stereo unspecified), > 4 mM (inactive).
As for `CC1(C)C2CC(=O)[C@]3(C)C(CC[C@@]4(C)[C@H](c5ccoc5)OC(=O)[C@H]5O[C@]543)[C@@]2(C)C=C[C@@H]1O` (stereo partly specified), the Kd was > 4 mM (inactive).
In the case of `CN(C)CC(O)C1CCOC(C)(C)C1` (stereo unspecified), the Kd was > 4 mM (inactive).
As for `Cc1cc(N)on1`, the Kd is > 4 mM (inactive).
Under `OCc1ccc(-c2ccccn2)s1` stands > 4 mM (inactive).
Under `CC1=C(/C=C/C(C)=C/C=C/C(C)=C/CO)C(C)(C)CCC1` stands > 4 mM (inactive); under `NC(=O)CN1CC(=O)NC(=O)C1`, > 4 mM (inactive); under `COC(=O)Cc1cc(=O)n(-c2ccccc2)[nH]1`, > 4 mM (inactive).
Turning to `Cc1nnc(SCc2ccccc2)[nH]c1=O`, the Kd is > 4 mM (inactive).
With `Nc1cc(-c2ccco2)[nH]n1`, the Kd was > 4 mM (inactive).
For `COc1cc2c(cc1OC)-c1cc3ccc(OC)c(OC)c3c[n+]1CC2`, the Kd is > 4 mM (inactive).
In the case of `Cc1nnsc1C(=O)O`, the Kd is > 4 mM (inactive).
Next, `N#C/C(=C\c1ccc[nH]1)S(=O)(=O)c1ccccc1`: > 4 mM (inactive).
For `O=P(c1ccccc1)(c1ccccc1)C1CCOCC1`, the Kd is > 4 mM (inactive).
`CC(=O)Nc1cccc(N(C)S(C)(=O)=O)c1`: the Kd is > 4 mM (inactive).
As to `c1ccc2c(c1)nnn2C1CCNCC1`, the Kd was > 4 mM (inactive).
Take `Nc1ccc(-c2cn3c(n2)SCC3)cc1`: the Kd was > 4 mM (inactive).
For the compound `Cc1nnc(N2CCN(c3ccccc3)CC2)[nH]c1=O`, the Kd was > 4 mM (inactive).
In the case of `Cc1nnc2sc(-c3ccco3)nn12`, the Kd was > 4 mM (inactive).
In the case of `CCc1c(C)[nH]c(=S)c(C(N)=O)c1C`, the Kd was > 4 mM (inactive).
On to `Cn1cccc1C=C1C(=O)NC(=S)NC1=O`, for which the Kd is > 4 mM (inactive).
Regarding `Cn1c(O)c(C2=NC(=S)NC2=O)c2ccccc21`, the Kd was > 4 mM (inactive).
For the compound `COc1ccc(N=C2NC(=O)CS2)cc1`, the Kd was > 4 mM (inactive).
Consider `CC1=C(/C=C/C(C)=C/C=C/C(C)=C/C=C/C=C(C)/C=C/C=C(C)/C=C/C(=O)[C@]2(C)C[C@@H](O)CC2(C)C)C(C)(C)C[C@H](O)C1`, for which the Kd was > 4 mM (inactive).
In the case of `O=C(O)C1COc2ccccc2O1` (stereo unspecified), the Kd was > 4 mM (inactive).
Under `O=C(NN=C1CCCC1)c1ccncc1` stands > 4 mM (inactive).
Next, `O=S1(=O)CCC2CC=CCC21` (stereo unspecified): > 4 mM (inactive).
With `O=C(O)CNCC(O)Cn1c2ccccc2c2ccccc21` (stereo unspecified), the Kd is > 4 mM (inactive).
For the compound `O=C(Nc1cccnc1)c1cccs1`, the Kd was > 4 mM (inactive).
Under `O=C(c1nc2ncccn2n1)N1CCc2ccccc2C1` stands > 4 mM (inactive); under `c1ccc(Cc2nn3c(-c4ccncc4)nnc3s2)cc1`, > 4 mM (inactive); under `COC(=O)[C@@H]1OC(=O)C2OC23[C@@]1(C)CCC1[C@@]2(C)CCC(=O)C(C)(C)C2C[C@@H](OC(C)=O)[C@]13C` (stereo partly specified), > 4 mM (inactive).
Next, `O=C(Nc1ccc(O)cc1)N1CCOCC1`: > 4 mM (inactive).
Regarding `OCc1ccc(-c2cccs2)s1`, the Kd is > 4 mM (inactive).
As to `COc1ccc(/C=C2/N=C(N)SC2=O)cc1`, the Kd is > 4 mM (inactive).
As to `Cc1ccc(C(=O)Nn2cnnc2)c(Cl)c1`, the Kd was > 4 mM (inactive).
For `O=C(NCc1ccccn1)c1ccccc1Cl`, the Kd was > 4 mM (inactive).
Under `COc1ccc2c(c1O)-c1c(OC)c(OC)cc3c1[C@H](C2)N(C)CC3` stands > 4 mM (inactive).
With `Cc1ccc(OCC(=O)n2cnnc2N)c(C)c1`, the Kd was > 4 mM (inactive).
For `O=C1CC(N2CCC(O)CC2)C(=O)N1c1ccc(F)cc1` (stereo unspecified), the Kd is > 4 mM (inactive).
`CCOC(=O)c1cnc2n(c1=O)CCS2`: the Kd was > 4 mM (inactive).
Turning to `O=C(Oc1ccc(-c2nnco2)cc1)N1CCOCC1`, the Kd is > 4 mM (inactive).
`COC(CC(=O)O)c1nc2ccccc2s1` (stereo unspecified): the Kd is > 4 mM (inactive).
Next, `O=c1oc2ccccc2cc1O`: > 4 mM (inactive); `Cc1occc1C(=O)Nc1ccc(C(N)=O)cc1`: > 4 mM (inactive); `NC(=O)Cc1nc(-c2ccc(F)cc2)cs1`: > 4 mM (inactive).
Next, `NC(=O)CSc1ccc(-c2ccccc2)nn1`: > 4 mM (inactive); `N#Cc1cnn(Cc2ccc(Cl)cc2)c1N`: > 4 mM (inactive).
Under `O=[N+]([O-])c1c[n+]([O-])n(-c2ccccc2)n1` stands > 4 mM (inactive); under `Nc1nnc(SCc2ccc(F)cc2Cl)s1`, > 4 mM (inactive).
On to `CC1SC(=NC(=O)c2ccncc2)NC1=O` (stereo unspecified), for which the Kd is > 4 mM (inactive).
For the compound `CC(C)=NNC(=O)C(=O)NC(C)(C)C`, the Kd is > 4 mM (inactive).
Next, `CC1=NNC(=O)C1CCc1ccncc1` (stereo unspecified): > 4 mM (inactive); `Fc1cc2nccnc2cc1N1CCSCC1`: > 4 mM (inactive).
In the case of `CC(C)(C)CC(=O)NC1=NCCS1`, the Kd is > 4 mM (inactive).
As for `CC1(C)Cc2cccc(C(=O)O)c2O1`, the Kd was > 4 mM (inactive).
In the case of `O=C(O)c1scc2c1CCCC2`, the Kd is > 4 mM (inactive).
Regarding `O=C1CSC(=O)N1CN1CCOCC1`, the Kd is > 4 mM (inactive).
Turning to `C/C=C/c1ccc2c(c1)OCO2`, the Kd is > 4 mM (inactive).
Consider `O=C(O)c1ccc2c(c1)OCO2`, for which the Kd is > 4 mM (inactive).
Next, `O=[n+]1cc(-c2ccccc2)n([O-])c2c1CCC2`: > 4 mM (inactive).
For `Cc1cccc(CSc2nncc(=O)[nH]2)c1`, the Kd was > 4 mM (inactive).
`O=C(O)c1ccc(-n2cccn2)cc1`: the Kd was > 4 mM (inactive).
On to `CC(C)=CC(=O)Nc1ccc2c(c1)OCO2`, for which the Kd is > 4 mM (inactive).
Take `NCc1ccc2sccc2c1`: the Kd was > 4 mM (inactive).
As for `CC(C)CCCC(C)C1CCC2C3CC(=O)[C@H]4C[C@@H](O)CC[C@]4(C)C3CC[C@]12C` (stereo partly specified), the Kd was > 4 mM (inactive).
With `CN1C2CC[C@@H]1CC(OC(=O)[C@H](CO)c1ccccc1)C2` (stereo partly specified), the Kd is > 4 mM (inactive).
Under `O=C(O)CCC(=O)c1cccc2ccccc12` stands > 4 mM (inactive).
Regarding `O=C1CC(C(=O)O)c2ccccc21` (stereo unspecified), the Kd is > 4 mM (inactive).
In the case of `Cc1ccc(/C=C2/C(=O)N=C(N)N2C)s1`, the Kd is > 4 mM (inactive).
Turning to `O=C(O)c1ccc(CSc2ncn[nH]2)cc1`, the Kd is > 4 mM (inactive).
For `COC(=O)c1cnccc1C(F)(F)F`, the Kd was > 4 mM (inactive).
